Laboratory results taken from patent publication US4235909A, “Octahydro-2H-pyrrolo[3,4-g]quinolines” (Eli Lilly and Company, priority 1979, dated 1980).
Where a name gives a salt, the structure may show the parent alone.

Legend:
prolactin = test: Inhibition of prolactin secretion in reserpine-treated male rats; format: in vivo, rat (Sprague-Dawley); conditions: serum one hour after treatment, reserpine pretreated male rats
Experimental: The compounds of this invention are also useful as prolactin inhibitors and as such they can be employed in the treatment of inappropriate lactation such as postpartum lactation and galactorrhea.
Adult male rats of the Sprague-Dawley strain weighing about 200 g. were housed in an air-conditioned room with controlled lighting (lights on […].) and fed lab chow and water ad libitum. Each rat received an intraperitoneal injection of 2.0 mg. of reserpine in aqueous suspension 18 hours before administration of the test drug. The purpose of the reserpine was to keep prolactin levels uniformly elevated. The compounds under test were dissolved in 10 percent ethanol, and were injected intraperitoneally at doses of 0.5 and 5 mg/kg. Each compound was administered at each dose level to a group of 10 rats, and a control group of 10 intact males received an equivalent amount of 10 percent ethanol. One hour after treatment, all rats were killed by decapitation, and 150 μl aliquots of serum were assayed for prolactin.
The difference between the prolactin level of the treated rats and prolactin level of the control rats, divided by the prolactin level of the control rats gives the percent inhibition of prolactin secretion attributable to the compounds of this invention. In the table, column 1 gives the name of the compound; and columns 2 and 3, the percent prolactin inhibition at the 0.5 and 5 mg/kg dose levels.

[1] = test system: 6-hydroxydopamine-lesioned rats; test: Rat turning test in 6-hydroxydopamine-lesioned (nigro-neostriatal-lesioned) rats, dopamine agonist activity; format: in vivo; conditions: 1 mg/kg intraperitoneal; for % of Rats Exhibiting Turning Behavior: aqueous solution; for Average Number of Turns/rat: first 15 minutes after end of latency period
Experimental: In this test, nigro-neostriatal-lesioned rats are employed, as prepared by the procedure of Ungerstedt and Arbuthnott, Brain Res, 24, 485 (1970). A compound having dopamine agonist activity causes the rats to turn in circles contralateral to the side of the lesion. After a latency period, which varies from compound to compound, the number of turns is counted over a 15-minute period.
The compounds were dissolved in water and the aqueous solution injected into the rat by the intraperitoneal route at a dose level of 1 mg/kg.

[2] = Acute lethality after intraperitoneal dosage (LD50); format: in vivo
Experimental: In using the compounds of this invention to inhibit prolactin secretion or to treat Parkinson's syndrome or for other pharmacologic action, a compound according to Formula I above in which R^2 is C1 -C3 alkyl or allyl and R^1 is H or C1 -C3 alkyl, or a salt thereof with a pharmaceutically-acceptable acid, is administered to a subject suffering from Parkinsonism or in need of having this prolactin level reduced in an effective amount to treat Parkinsonism or to reduce prolactin. Oral administration is preferred. If parenteral administration is used, the injection is preferably by the subcutaneous route using an appropriate pharmaceutical formulation. […] In particular, with intravenous or intramuscular administration, a water soluble pharmaceutically-acceptable salt is employed. For oral administration, the compound either as the free base or in the form of a salt thereof can also be mixed with standard pharmaceutical excipients and loaded into empty telescoping gelatin capsules or pressed into tablets. The oral dosage range is from about […]. to 10 mg./kg. of mammalian weight and the parenteral dose range from about 0.0025 to 2.5 mg./kg.

SMILES | Percent Prolactin Inhibition at Given Dose (prolactin; 5 mg/kg intraperitoneal) [%] | % of Rats Exhibiting Turning Behavior [1] [%] | Average Number of Turns/rat [1] [Turns/rat] | LD50 ([2]; in vivo, ip, intraperitoneal, indicated from lethality at the doses tested) [mg/kg] | deaths ([2]; intraperitoneal dosages of 10-30 mg./kg.) | lethality ([2]; intraperitoneal dosages of 100-300 mg./kg.) | Percent Prolactin Inhibition at Given Dose (prolactin; 0.5 mg/kg intraperitoneal) [%]
CCCN1CCC[C@@H]2Cc3c[nH]cc3C[C@H]21 (relative stereo) [trans-dl-5-n-Propyl-4,4a,5,6,7,8,8a,9-octahydro-2H-pyrrolo-[3,4-g]quinoline maleate] | 95 | 100 | 169 | – | – | – | –
CCCN1CCC[C@@H]2Cc3c[nH]cc3C[C@H]21 (relative stereo) | – | – | – | 30 to 100 | no deaths | fatal | –
CN1CCC[C@@H]2Cc3c[nH]cc3C[C@H]21 (relative stereo) [trans-dl-5-Methyl-4,4a,5,6,7,8,8a,9-octahydro-2H-pyrrolo[3,4-g]quinoline maleate] | 90 | 33 | 20 | – | – | – | 23
CCCN1C[C@H](CO)C[C@@H]2Cc3c[nH]cc3C[C@H]21 (relative stereo) [trans-dl-5-n-propyl-7-hydroxymethyl-4,4a,5,6,7,8,8a,9-octahydropyrrolo[3,4-g]quinoline] | – | 100 | 109 | – | – | – | –
